According to patent US20070059311A1, “Regulation of the hedgehog signaling pathway and uses thereof” (priority 2005, published 2007):

Key:
Hep3B cells [1] = assay: TUNNEL (TUNEL) apoptosis assay; format: cell-based; settings: 2 μM
Protocol: (§1) TUNEL assay was performed using a kit from Roche Biochemicals according to published procedure (Athar et al., 2004). Briefly, cells were fixed with 4% paraformaldehyde at room temperature for 1 h and permeated with 0.1% Triton X-100, 0.1% sodium citrate (freshly prepared) on ice for 2 min. After washing with PBS, each sample was incubated with 50 μl of TUNEL reaction mixture at 37° C. for 30 min. TUNEL labeled solution (without enzyme) was used as a negative control. TUNEL positive cells were counted under a fluorescent microscope. The counting was repeated three times and the percentage from each counting was calculated.

Hep2G cells = assay: TUNNEL (TUNEL) apoptosis assay; format: cell-based; settings: 2 μM
Protocol: as §1

Hep3B cells [2] = assay: real-time PCR of hedgehog target genes Gli1 and PTCH1 after drug treatment; format: cell-based; settings: 2 μM
Protocol: (§2) HCC cell cell lines (Hep3B, HepG2, HCC36, PLC/PRF/5 (identified as PLC) and Huh 7) were provided by Chiaho Shih, Tien Ko and Kui Li at UTMB. All cells were cultured in Dulbeco-modified essential medium (DMEM) with 10% FBS and antibiotics. […] In addition, the specific inhibition of hedgehog signaling in HCC cells was achieved by addition of Shh neutralizing antibodies (1 μg/ml in 0.5% FBS DMEM, Car# SC-9024, Santa Cruz Biotechnology, Santa Cruz, Calif.). […] Transient transfection of Gli1 in HCC cells was performed using LipofectAmine according to the manufacturer's recommendation (Plasmid-LipofectAmine=1:2.5). Cells with ectopic expression of Gli1 were subjected to drug treatment and to TUNEL (terminal deoxynucleotidyl transferase-mediated dUTP nick end labeling) assay.

Huh7 cells [3] = assay: MTT cell growth assay; format: cell-based; settings: tomatidine, negative control
Protocol: as §2
(§3) For cell viability analysis, two methods were used: trypan Blue analysis and MTT assay. Trypan Blue analysis was performed to manufacturer's instruction (Invitrogen, CA). The percentage of trypan blue positive cell (dead cells) were calculated under a microscope and triplicates of samples for each treatment were used in a 96-well format. Twenty microliters of MTT (10 mg/ml in PBS) was added to each well (containing 100 μl cultured medium, 0.5% FBS DMEM). […] Thirty minutes later, absorbance was measured at 570 nm using a microplate reader from Molecular Devices Co., Sunnyvale, Calif. […]

Hep3B cells [4] = assay: Trypan blue cell death assay; format: cell-based; settings: KAAD-cyclopamine 2 μM
Protocol: as §2, §3

Huh7 cells [5] = assay: BrdU incorporation; format: cell-based
[6] = tested on: Huh 7 cells that transiently expressed Gli1; assay: TUNEL assay in cells with ectopic expression of Gli1; format: cell-based; settings: Huh 7 cells transiently expressing Gli1 under CMV promoter
Protocol: as §1

[7] = tested on: cells regardless of hedgehog signaling; assay: toxicity of KAAD-cyclopamine to cells regardless of hedgehog signaling; format: cell-based; settings: 5 or 10 μM
[8] = tested on: liver cancer cells with activated hedgehog signaling pathway; assay: induction of apoptosis in liver cancer cells; format: cell-based; settings: 2 μM KAAD-cyclopamine
Protocol: as §1

GI cancer cells = GI cancer cells (Ma et al., 2006); cited from earlier work
Shh promoter = assay: sonic hedgehog promoter activity (luciferase reporter) in HCV expressing cells; format: cell-based; settings: Huh7 cells with stable expression of HCV; HCV RNA replication inhibited by interferon treatment
Source text: Furthermore, the present invention also examined whether HCV RNA replication was a major trigger for activated hedgehog signaling in Hepatocellular carcinoma. In order to do so, cell lines with or without HCV RNA replication for the sonic hedgehog (shh) promoter activity were compared. The promoter activity of SHH was higher in Huh7 cells than in HepG2 cells. […] However, the shh promoter activity was reduced when the HCV RNA replication was inhibited by interferon treatment as shown in 2-3c (FIG. 7B).

Huh7-2-3(+) cells = assay: real-time PCR of Gli1 in HCV replicating cells after interferon; format: cell-based; settings: Huh7-2-3(+) cells treated with interferon (giving Huh7-2-3(−) cells)
Source text: The activation of hedgehog signaling pathway in hepatocellular carcinoma infected with virus or bacteria was also examined. Huh7 cells are hepatocellular carcinoma cells that can support HCV replication (Scholle F. et al., 2004. Huh7-2-3(+) are Huh7 cells that allow active HCV replication and Huh7-2-3(−) cells are derived from Huh7-2-3(+) cells following interferon treatment for two weeks to prevent virus replication. SIIA are gastric cancer cells with hedgehog signaling activation and used as control.

| Molecule | apoptosis (TUNNEL assay) (Hep3B cells [1]) | apoptosis (TUNNEL assay) (Hep2G cells) | levels of Gli1 and PTCH1 transcripts (Hep3B cells [2]) | cell growth (MTT assay) (Huh7 cells [3]) | level of cell death (Trypan blue) (Hep3B cells [4]) | BrdU incorporation (Huh7 cells [5]) | TUNEL / sensitivity to treatment [6] | toxicity to cells [7] | time within which apoptosis is induced [8] [h] | concentration that could cause non-specific toxicity (GI cancer cells) [µM] | shh promoter activity (Shh promoter) | expression of Gli1 (Huh7-2-3(+) cells) |
| --- | --- | --- | --- | --- | --- | --- | --- | --- | --- | --- | --- | --- |
| C[C@H]1CC[C@]2(NC1)O[C@H]1C[C@H]3[C@@H]4CC[C@H]5C[C@@H](O)CC[C@]5(C)[C@H]4CC[C@]3(C)[C@H]1[C@@H]2C [tomatidine] | did not induce apoptosis | did not induce apoptosis | little discemible effect | did not affect cell growth | – | – | – | – | – | – | – | – |
| KAAD-cyclopamine | apoptosis | no detectable apoptosis | – | – | increased level of cell death | reduced | negative for TUNEL | quite toxic | ≤ 12 | 10 | – | – |
| interferon | – | – | – | – | – | – | – | – | – | – | reduced | reduced |
